Test results published in PubChem BioAssay (NCI).
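Cells were grown in 96-well plates and exposed to each compound for 48 hours at five concentrations; endpoints were interpolated linearly between bracketing concentrations, or set to the highest concentration if not reached. The concentration for 50% growth inhibition is given as GI50. The concentration for full growth arrest is given as TGI.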

Experiments:
Test in all cases: NCI tumour cell line growth inhibition, 48 h
[1] = test system: SK-MEL-5 melanoma
[2] = test system: SF-539 CNS
[3] = test system: HCT-116 colon
[4] = test system: SR leukemia
[5] = test system: SK-MEL-28 melanoma
[6] = test system: UACC-62 melanoma
[7] = test system: HOP-62 NSCLC
[8] = test system: OVCAR-4 ovarian
[9] = test system: T-47D breast
[10] = test system: NCI/ADR-RES ovarian

Compound	TGI [1] [µM]	TGI [2] [µM]	TGI [3] [µM]	TGI [4] [µM]	TGI [5] [µM]	TGI [6] [µM]	TGI [7] [µM]	TGI [8] [µM]	GI50 [1] [µM]	GI50 [9] [µM]	TGI [9] [µM]	GI50 [10] [µM]	TGI [10] [µM]	GI50 [2] [µM]	GI50 [7] [µM]	GI50 [3] [µM]	GI50 [5] [µM]	GI50 [8] [µM]	GI50 [6] [µM]
CCC(=O)CC(=O)CCC(=O)Nc1cc(C)ccc1C	> 100	> 100	> 100	> 100	> 100	> 100													
O=c1/c(=C/c2ccccc2[N+](=O)[O-])sc2nnc(-c3ccco3)n12	34.4	33.9	58.8	70.9	57	> 100	39.2	40											
CC/C=C\C[C@H](O)C/C=C1/C(=O)C(Cl)=C[C@@H]1C/C=C\CCCC(=O)OC	1.77	3.05	0.576		1.31	0.717	2.25	3.21	0.489	0.985	4.37	0.581	9.14	0.818	0.53	0.275	0.432	0.723	0.27
Cc1c2n(c(=O)[nH]c1=O)C1OC(CO)C(O2)C1O (stereo unspecified)	> 100	> 100	> 100	> 100	> 100	> 100	> 100	> 100											
c1ccc2cc(-c3cc4ccccc4s3)ccc2c1	> 100	> 100	> 100	> 100	> 100	> 100	> 100	> 100											
O=C1c2ccccc2C(=O)N1CCn1ccc(NC(c2ccccc2)(c2ccccc2)c2ccccc2)nc1=O	31.2	30.6	32.4		32.1	26	33	59.2											
Oc1ccc(Nc2ncnc3c2sc2ncccc23)cc1	> 100	0.293	> 100		> 100	46.1		> 100	0.047			0.0286	> 35.2	0.0266	0.0175	< 0.01	3.75	> 88.7	0.0379
O=C(Nc1ccn(CCO)c(=O)n1)c1ccccc1	> 100	> 100	> 100	> 100	> 100	> 100	> 100	> 100											
CC1(C)COC(C2(C)C(=O)C=C(c3ccccc3)c3ccccc32)=N1 (stereo unspecified)	> 100	> 100	> 100	> 100	> 100	> 100	> 100	> 100											
COc1cc(Nc2ncccc2C(=O)NCc2cn(Cc3cccc(Oc4ccccc4)c3)nn2)cc(OC)c1	> 100	> 100	> 100		> 100	> 100	> 100	> 100	3.11	4.58	> 100	3.21	> 100	4.39	6.31	4.34	4.14	5.42	3.68
NC(=S)N/N=C(\CC1OC(=O)c2ccccc21)c1ccc(Cl)cc1 (stereo unspecified)		44.9	54.9	> 100	> 100	47.2	46	99											
O=C1CCC(Cl)=CC2CCCN12 (stereo unspecified)	> 100	> 100	> 100		> 100	> 100	> 100												
N#Cc1c(N)nc(N2CCOCC2)c(C#N)c1-c1ccncc1	> 100	> 100	> 100		> 100	> 100	> 100	> 100	> 100	12.6	51.7	> 100	> 100	> 100	29.6	> 100	> 100	> 100	27
CC1(C)CC(=O)C(C=NC(=S)c2ccccc2)=C(O)C1	> 100	> 100	> 100		> 100	> 100	> 100	> 100					> 100						
O=C(CCN(C(=O)O)S(=O)(=O)c1ccc(NC(=O)c2ccccc2)cc1)Nc1ccccc1	> 100	> 100	> 69.5	> 100	> 100	97.5	> 100	> 100											
